# Where two headings read alike, the source gives them in different places.
# Experiments:
# CD4+CD25+ Treg = format: in vivo, CB6F1 female mice; conditions: for % CD4+ CD25+/ total cell / % Treg/ total cell / CD4+ CD25+ (events): blood, CY 2 mg IP at day 0
# Description: (§1) Groups of CB6F1 female mice (n=10/group) received at day 0 sub-cutaneous (SC) 10e5 TC1-Mage3 cells followed by injection of: • Group 1: PBS at day 3-7-11-15 • Group 2: MAGE-A3 (1 μg)/As 15 ASCI at day 3-7-11-15 • Group 3: Cyclophosphamide (CY) (2 mg IP) at day 0+PBS at day 3-7-11-15 • Group 4: CY+MAGE-A3 (1 μg)/AS15 ASCI
# (§2) • verification of the depletion by FACS at day 3 and 15 on whole blood • in vivo tumor growth from day 0 to day 28 • ICS at day 28 on spleen cells • serology at day 28 (not completed)
# (§3) In order to analyze the impact of 2 mg of CY injected intraperitoneally in mice, 3 and 15 days after the injection blood was taken and lymphocytes count was performed by FACS
# lymphocytes = format: in vivo, CB6F1 female mice; conditions: for Total Cell count (multisizer): blood, CY 2 mg IP at day 0
# Description: as §1, §2, §3
# MAGE-A3 = tested on: MAGE-A3
# Description: as §1, §2
# 14 days after the last ASCI injection, the T cell response was analyzed by intracellular cytokine staining of CD4 and CD8 using flow cytometry (3 pools per group) after a short in vitro restimulation (2 Hrs) with the pool of MAGE-A3 overlapping peptide spanning the entire MAGE-A3 sequence.
# TC1-Mage3 cells = format: in vivo, CB6F1 female mice; conditions: 10e5 TC1 MAGE3 cells SC day 0; cyclophosphamide 2 mg at day 0; groups of 10 mice
# Description: as §1, §2
smiles,measurement,setting,value
"O=P1(N(CCCl)CCCl)NCCCO1 (stereo not shown) [Cyclophosphamide (Cy), Cyclophosphamide]",number of T reg (in words),CD4+CD25+ Treg; 3 days after 2 mg cyclophosphamide,only slightly decreased the number of T reg but did not deplete them
same,% CD4+ CD25+/ total cell,CD4+CD25+ Treg; 3 days,0.1%
same,% Treg/ total cell,CD4+CD25+ Treg; 3 days,0.07%
same,CD4+ CD25+ (events),CD4+CD25+ Treg; 3 days,274 events
same,% CD4+ CD25+/ total cell,CD4+CD25+ Treg; 15 days,0.16%
same,% Treg/ total cell,CD4+CD25+ Treg; 15 days,0.13%
same,CD4+ CD25+ (events),CD4+CD25+ Treg; 15 days,539 events
same,total number of T cells (in words),lymphocytes; 3 days after 2 mg CY,has an impact on the total number of T cells
same,total number of T cells (in words),lymphocytes; 15 days after the injection of CY,almost restored
same,Total Cell count (multisizer),lymphocytes; 3 days after injection,1 ×10e6 cells/ml
same,Total Cell count (multisizer),lymphocytes; 15 days after injection,5.53 ×10e6 cells/ml
same,MAGE-A3 specific CD4 response,"MAGE-A3; cyclophosphamide by itself, spleen cells day 28, FIG. 1",did not induce any MAGE-A3 specific CD4 response
same,MAGE-A3 specific CD8 response,"MAGE-A3; cyclophosphamide by itself, spleen cells day 28, FIG. 2",did not induce any MAGE_A3 specific CD8 response
same,effect on the CD4 response induced by the ASCI,"MAGE-A3; cyclophosphamide given 3 days before the ASCI, FIG. 1",did not abolish the CD4 response induced by the ASCI there is even a trend in favor of a better response
same,effect on the CD8 response induced by the ASCI,"MAGE-A3; cyclophosphamide given 3 days before the ASCI, FIG. 2",did not abolish the CD8 response induced by the ASCI there is even a trend in favor of a better response
same,"tumor rejection, % of the animals",TC1-Mage3 cells,100%

# From US20100008980A1, “Use of MAGE A3-Protein D Fusion Antigen in Immunotherapy Combined with Surgery, Chemotherapy or Radiotherapy for the Treatment of Cancer” (priority 2007, published 2010)
